The values below come from patent US20240390484A1 (priority 2022, published 2024).

A short description of series [1]: RNA encapsulation/complexation efficiency by Ribogreen assay. The format is physicochemical. As to conditions: 48/40.5/10/1.5 mol %; blank-LNP added to lyophilized S2P RNA (55 ug/vial), N/P 7. Here is the method:
(§1) In the case of a filled LNP, for example, an LNP-encapsulated S-2P RNA liquid drug product, the preparation protocol is essentially the same, except that it was an aqueous solution of S-2P RNA in citrate buffer pH 5-6 that constitutes the aqueous phase for LNP formation. The LNP-encapsulated RNA formulation is also referred to as “RNA-LNP” in this disclosure. Regarding characterization, particle size and polydispersity index (PDI) of the RNA-LNP were determined by Dynamic Light Scattering (DLS); RNA encapsulation efficiency and concentration were determined by means of Ribogreen® assay and RNA purity was determined by agarose gel electrophoresis.
(§2) The “ready-to-use” RNA product was manufactured by transferring a predetermined amount of already formed LNP in solution to a sealed vial containing the lyophilized RNA composition, followed by mixing at room temperature. The amount of LNP added per vial (e.g., 30-100 μg RNA per vial) was determined based on the molar ionizable lipid:RNA (N/P) molar ratio of 7. In this disclosure, “ready-to-use” S-2P RNA formulations (also referred to as “LNP(S-2P RNA)”) containing 30-100 μg/mL S-2P RNA were prepared, and then characterized with respect to particle size, polydispersity index, as well as RNA concentration, complexation efficiency, and purity using the same methods as described above in Example 3.

A short description of series [2]: Stability of blank-LNP at 2-8° C. (particle size, PDI). The format is physicochemical. Conditions: blank-LNP 48/40.5/10/1.5 mol %. Here is the method:
(§3) Lipid nanoparticles (LNPs) were formed or formulated by rapid mixing of an ethanol phase and an aqueous phase using a microfluidic device. The aqueous phase included a 50 mM citrate buffer (pH 5.5). The ethanol phase included an ionizable lipid (as described herein), cholesterol (Jiangsu Southeast Nanomaterials), 1,2-diastearoyl-sn-glycero-3-phosphocholine (DSPC) (Jiangsu Southeast Nanomaterials) and 1,2-dimyristoyl-rac-glycero-3-methoxypolyethylene glycol-2000 (DMG-PEG2000) (SINOPEG). A series of ionizable lipids were evaluated. These four lipid components were mixed at defined molar ratios in ethanol, for instance, at a molar ratio of 48:40.5:10:1.5 (ionizable lipid:cholesterol:DSPC:DMG-PEG2000). The generated LNP particles were purified in citrate buffer (containing sucrose) and characterized with respect to particle size, polydispersity index (PDI) and ionizable lipid concentration. The LNP solution was then diluted to the target concentration and stored at 2-8° C.
Each generated blank-LNP formulation was added to and mixed with lyophilized S2P RNA, altogether yielding a series of “ready-to-use” S2P RNA test items containing the different ionizable lipids. The pharmaceutical characteristics (Table 3) and in vitro transfection efficiency (Table 4) of these “ready-to-use” RNA test items were compared head-to-head. In parallel, the stability profiles of these […] blank-LNP formulations (i.e. without RNA complexation) were assessed at 2-8° C. (see Table 5).
The generated fourteen blank-LNP formulations were characterized in terms of particle size and PDI, both at the end of manufacturing (T=0) and 8-week storage at 2-8° C. […] (defined as size increase ≤20 nm in 8 weeks), namely DMG-PEG2000 between at least 1-4 mol %, DSPC between at least 5-20 mol %, ionizable lipid between at least 30-70 mol % and cholesterol between at least 18.5-58.5 mol %.

Series [3] can be described thus: Particle size and polydispersity index (PDI) by Dynamic Light Scattering. The format is physicochemical. As to conditions: for “Ready-to-use” S2P RNA formulation PDI / “Ready-to-use” S2P RNA formulation Size: 48/40.5/10/1.5 mol %, blank-LNP added to lyophilized S2P RNA (55 ug/vial), N/P 7; for Blank-LNP PDI / Blank-LNP Size: 48/40.5/10/1.5 mol % ionizable lipid/cholesterol/DSPC/DMG-PEG. The method, then: as §3, §1, §2

Another series concerns Vero E6 cells. The format is cell-based. As to conditions: ready-to-use S2P RNA, 4 μg, 48 hours post transfection; 48/40.5/10/1.5 mol %.
A further series relates to BHK-21 cells. The format is cell-based. As to conditions: ready-to-use S2P RNA, 4 μg, 48 hours post transfection; 48/40.5/10/1.5 mol %.
The mark [4] stands for this setting: various LNP batches, different molar ratios of ionizable lipid:cholesterol:DSPC:DMG-PEG2000.

As for `CCCCCCCCCOC(=O)CCCCCCCOc1ccc(OCCCCCCCC(=O)OC(CCCCCCCC)CCCCCCCC)c(COC(=O)CCCN(C)C)c1` [Lipid #5], the ““Ready-to-use” S2P RNA formulation RNA complexation efficiency” value in series [1] turned out to be 44%. In series [2], the “PDI, T = 1 month” value was found to be 0.14; the “Size, T = 1 month” value stood at 93 nm; the “Change in size (nm) vs. T0, T = 2 weeks” value is −1 nm; the “PDI, T = 2 weeks” value turned out to be 0.13. In addition, in series [2], the “Size, T = 2 weeks” value came out at 90 nm; the “PDI, T = 0” value came out at 0.20; the “Size, T = 0” value came out at 91 nm. For the same molecule, in series [3], the ““Ready-to-use” S2P RNA formulation PDI” value is recorded as 0.13, the ““Ready-to-use” S2P RNA formulation Size” value was 137 nm, the “Blank-LNP PDI” value was determined as 0.2 and the “Blank-LNP Size” value came to 91 nm. In series [3] (setting [4]), the particle size is on record as 80±15 nm and the polydispersity index is 0.10±0.05.
As for `CC/C=C/CCCC(CCC/C=C/CC)OC(=O)CCCCCCCC(CCCCCCCC(=O)OC/C=C/CCCCCC)COC(=O)CCCN(C)C` (centres unmarked) [Lipid #10], the “RBD expression in Vero E6 cells” value with Vero E6 cells is given as 0.25 ng/mL. In addition, the ““Ready-to-use” S2P RNA formulation RNA complexation efficiency” value in series [1] is 34%. Besides, in series [2], the “Change in size (nm) vs. T0, T = 1 month” value is “+29 nm”; the “PDI, T = 1 month” value was found to be 0.21; the “Size, T = 1 month” value was 120 nm; the “Change in size (nm) vs. T0, T = 2 weeks” value is “+16 nm”. In series [2], the “PDI, T = 2 weeks” value came out at 0.11; the “Size, T = 2 weeks” value is reported as 107 nm; the “PDI, T = 0” value was 0.05; the “Size, T = 0” value is on record as 91 nm. In addition, in the series with BHK-21 cells, the “RBD expression in BHK-21 cells” value was 0.33 ng/mL. For the same molecule, in series [3], the ““Ready-to-use” S2P RNA formulation PDI” value was 0.21, the ““Ready-to-use” S2P RNA formulation Size” value was determined as 204 nm, the “Blank-LNP PDI” value is given as 0.05 and the “Blank-LNP Size” value came to 91 nm.
In the case of `CCCCCC/C=C/COC(=O)CCCCCCCCC(CCCCCCCCC(=O)OC/C=C/CCCCCC)OC(=O)CCCN(C)C` [Lipid #9], the “RBD expression in Vero E6 cells” value in the series on Vero E6 cells is given as 0.16 ng/mL. Moreover, in series [1], the ““Ready-to-use” S2P RNA formulation RNA complexation efficiency” value came out at 34%. Besides, in series [2], the “Change in size (nm) vs. T0, T = 1 month” value is “+22 nm”; the “PDI, T = 1 month” value stood at 0.10; the “Size, T = 1 month” value is 229 nm; the “Change in size (nm) vs. T0, T = 2 weeks” value is reported as “+7 nm”. In addition, in series [2], the “PDI, T = 2 weeks” value turned out to be 0.05; the “Size, T = 2 weeks” value is 214 nm; the “PDI, T = 0” value came out at 0.09; the “Size, T = 0” value is given as 207 nm. In addition, the “RBD expression in BHK-21 cells” value in the series on BHK-21 cells was found to be 0.50 ng/mL. Further, in series [3], the ““Ready-to-use” S2P RNA formulation PDI” value is 0.18, the ““Ready-to-use” S2P RNA formulation Size” value turned out to be 280 nm, the “Blank-LNP PDI” value is on record as 0.09 and the “Blank-LNP Size” value came to 207 nm.
On to `CCCCCCCCCOC(=O)CCCCCCCOc1ccc(OCCCCCCCC(=O)OCCCCCCCCC)c(COC(=O)CCCN(C)C)c1` [Lipid #2], for which the “RBD expression in Vero E6 cells” value with Vero E6 cells was determined as 0.97 ng/mL. Moreover, in series [2], the “Change in size (nm) vs. T0, T = 1 month” value is reported as “unaltered size”; the “PDI, T = 1 month” value was found to be 0.07; the “Size, T = 1 month” value came out at 121 nm; the “Change in size (nm) vs. T0, T = 2 weeks” value is on record as “+2 nm”. For the same molecule, in series [2], the “PDI, T = 2 weeks” value came to 0.09; the “Size, T = 2 weeks” value worked out at 122 nm; the “PDI, T = 0” value is 0.09; the “Size, T = 0” value came to 120 nm. Also, in series [2] (listed as #2), the “Change in size (nm) vs. T0, T = 1 month” value is given as “+1 nm”. In addition, the “RBD expression in BHK-21 cells” value in the series with BHK-21 cells is 1.34 ng/mL. In addition, in series [3], the ““Ready-to-use” S2P RNA formulation PDI” value was 0.21, the ““Ready-to-use” S2P RNA formulation Size” value is 211 nm, the “Blank-LNP PDI” value came out at 0.09 and the “Blank-LNP Size” value is on record as 120 nm.
`CCCCCCCCOC/C=C\COC(=O)CCCCCCCCC(CCCCCCCCC(=O)OC(CCCCCCCC)CCCCCCCC)OC(=O)CCCN(C)C` (centres unmarked) [Lipid #12]: the “RBD expression in Vero E6 cells” value in the series with Vero E6 cells is on record as “<LOD”. The ““Ready-to-use” S2P RNA formulation RNA complexation efficiency” value in series [1] was found to be 27%. Besides, in series [2], the “Change in size (nm) vs. T0, T = 1 month” value was “+12 nm”; the “PDI, T = 1 month” value was 0.11; the “Size, T = 1 month” value is listed as 97 nm; the “Change in size (nm) vs. T0, T = 2 weeks” value is listed as “+8 nm”. Also, in series [2], the “PDI, T = 2 weeks” value was determined as 0.06; the “Size, T = 2 weeks” value was found to be 93 nm; the “PDI, T = 0” value is given as 0.04; the “Size, T = 0” value is on record as 85 nm. Besides, the “RBD expression in BHK-21 cells” value in the series with BHK-21 cells was found to be 0.19 ng/mL. In addition, in series [3], the ““Ready-to-use” S2P RNA formulation PDI” value was 0.14, the ““Ready-to-use” S2P RNA formulation Size” value is 172 nm, the “Blank-LNP PDI” value worked out at 0.04 and the “Blank-LNP Size” value was 85 nm.
